Like-named read-outs stand apart in the source and are kept apart here.
Tests used:
[1] = Catalepsy wire mesh, rat, max.; type: in vivo, male; details: rats; for Ratio Catalep./Amphetam. antag.: catalepsy ED50 (s.c.) / amphetamine antagonism ED50 (i.p.); for ED50: rat, in vivo, sc, wire mesh, maximum effect within first 6 hours
Method: Catalepsy wire mesh, rat, max. (ED50 mg/kg s.c.)
A vertical wire netting (50 cm×49 cm). The meshes (openings) of the netting are square (1 cm×1 cm). The wire diameter is 2 mm.
The animals are labeled and used in groups of five. The test substance is injected subcutaneously (s.c.) (5 ml/kg) at 4 dose levels selected from the fixed dose scale.
The animals are placed in the middle of the vertical wire netting 60, 120, 180, 240, 300 and 360 minutes after injection of the test compound. The animals are considered cetaleptic when they remain immobile during a period of 15 seconds. This cataleptic reaction is designated +. If the rats are "atonic" and passively slides down the wire mesh they are considered not cataleptic. If the animals climb up and down the wire mesh they are nor cataleptic. In both situations the designation - is used.

[2] = Determination of LD50 (acute toxicity, i.p.); type: in vivo, Mice, male; details: for LD50 at 24 h: mouse, in vivo, ip, mice, i.p., deaths after 24 hours
Method: Determination of LD50 (mg/kg i.p.)
Mice, male, weighing from 18-25 g, fasted from 4 p.m. the day before test day.
Four treated groups and one control group, each of 4 mice, are used.
The test substance is suspended in methyl cellulose 0.5% and injected intraperitoneally. The animals are placed in Macrolon cages type II. […] Furthermore the results are recorded according to the punching instructions as fractions: 0/4, 1/4, 2/4, 3/4 and 4/4 where 0, 1, 2, 3 and 4 indicate the number of deaths after the dose in question.

methylphenidate = assay: Methylphenidate antagonism; type: in vivo, male; details: Mus musculus, ip, mice, i.p.
Method: Methylphenidate antagonism (ED50 mg/kg i.p.)
Perspex observation cages without bottom and lid, consisting of 5 sections each measuring 12×25×30 cm. White corrugated paper. Mice, male, 18-25 g.
3×2 mice are used for each dose level. Two or 24 hours after injection of test substance, methylphenidate, 60 mg/kg, is injected s.c.
After administration of methylphenidate the mice are placed in the observation cages, 2 in each cage, where they remain for exactly 1 hour. The cages are placed on corrugated paper, the corrugations facing upwards. It is examined whether the mice have been biting the corrugated paper or not. […] If one or more of the control pairs have not been biting, the test has to be repeated on a new set of mice.
The result is stated in fractions: 0/3, 1/3, 2/3 and 3/3 where 0, 1, 2 and 3 are the number of pairs which have not been biting on receipt of the dose in question.

amphetamine = assay: Amphetamine antagonism; type: in vivo, Rats, male; details: for ED50: Rattus norvegicus, ip, 2 h, rats, i.p., amphetamine sulphate 13.6 mg/kg i.v. two hours later, read-out: Amphetamine antag. (ED50)
Method: Amphetamine antagonism (ED50 mg/kg i.p.)
Perspex observation cages without bottom and lid, consisting of 5 sections each measuring 12×25×30 cm.
The test substance is given i.p. in a reasonable dose based on the determined LD50. Two hours later an intravenous injection of amphetamine sulphate 13.6 mg/kg (~10 mg/kg amphetamine base) is given, after which the rats are placed individually in the cages. The cages are placed on white corrugated paper. Five rats are used for each dose level. Observations are made after 55 minutes and 65 minutes--observation time: 1 minute. The animals are observed for stereotypy (movements of the head, compulsive gnawing). […] If the compound has full antagonistic effect another group of rats is used at a lower dose. […] The result is stated as fractions: 0/5, 1/5, 2/5, 3/5, 4/5 and 5/5, where 0, 1, 2, 3, 4 and 5 indicate the number of rats which have not shown stereotypy at the dose in question. The results are calculated as ED50 in mg/kg.

physostigmine = assay: Physostigmine antagonism; type: in vivo, male; details: Mus musculus, ip, 0.5 h; mice, i.p., physostigmine 2 mg/kg i.p. thirty minutes after test substance; survivors after 60 minutes; read-out: Physostigmine antag. (ED50)
Method: Physostigmine antagonism (ED50 mg/kg i.p.)
Scopolamine bromide 0.04 mg/ml or 0.1 mg/ml.
Physostigmine salicylate 0.2 mg/ml.
Five mice are used for each dose level. One group, serving as positive control, is injected with scopolamine 0.4 mg/kg i.p. Thirty minutes after i.p. administration of test substance (or scopolamine), physostigmine 2 mg/kg, is injected i.p. This dose of physostigmine induces tremor with salivation, clonic convulsions, coma and death. After 60 minutes the number of survivors are counted.
The results are recorded in fractions: 0/5, 1/5, 2/5, 3/5, 4/5 and 5/5 where 0, 1, 2, 3, 4 and 5 inducate the number of animals in which the test compound has prevented the occurrence of death.

Muscarinic = Muscarinic affinity binding (3H-PrBCM, whole brain P2 fraction); parameters: species or system Rats; details: displacement of specific 3H-PrBCM binding by 50%; rat brain, pH 7.4, 30° C.; read-out: Muscarine affinity (IC50)
Method: Muscarinic affinity binding
Sodium thiosulphate 10 mM (2.48 g/1000 ml) ^3 H-PrBCM (N-2'-chloroethyl-N-[2", 3"-^3 H2 ] propyl-2-aminoethylbenzilate,spec. act. ~28 Ci/mM).
A rat is killed by a blow on the head and exsanguinated. The whole brain is removed and homogenized in 10 volumes of ice cold 0.32 M sucrose with a hand homogenizer. The homogenate is centrifuged at 600 g for 10 minutes (4° C.) and the pellet discarded. The supernatant is then centrifuged at 25000 g for 55 minutes (4° C.). The pellet fraction (P2) is resuspended in the same volume of 0.32 M sucrose as previously used and stored on ice.
The aziridinium ion of ^3 H-propylbenzilyllcholine mustard (^3 H-PrBCM) is prepared by cyclization at a concentration of 130 nM in 15 mM Na-phosphate buffer (pH 7.4) for 50 minutes at 20° C. The reaction is terminated by addition of 100 volumes of ice cold buffer.
The incubation is continued for 15 minutes and stopped by addition of 20 ml 100 mM phosphate buffer containing 10 mM sodium thiosulphate. The samples are filtered through Whatman GF/C glass fiber filters and washed with 30 ml ice cold 100 mM phosphate buffer. The filters with synaptosomes are transferred to scintillation vials and the radio-activity measured by liquid scintillation counting after addition of 10 ml Instal-Gel (Packard Inst.). All experiments are performed in triplicate.
Specific ^3 H-PrBCM binding is defined as the total binding minus the binding in the presence of 20 μM atropine.

apomorphine = assay: Apomorphine vomit; type: in vivo, Adult Beagle dogs; details: Canis lupus familiaris, sc, 4 h; Beagle dogs, s.c., four hours before apomorphine 25 μg/kg i.v.; calculated ED50 approximate; read-out: Apomorph. Vomit (ED50)
Method: Adult Beagle dogs of either sex, housed individually in kennels or in cages.
2-4 dogs are used per dose level.
The test compound is injected subcutanelusly in the back of the neck four hours before apomorphine, which is given intravenously in a dose of 25 μg/kg (volume 0.1 ml/kg).
The results are given as fractions, i.e. 0/2, 1/2 or 2/2, stating the number of dogs protected against vomiting over to the number of dogs. On account of the small number of animals the calculated ED50 should be considered approximate.

[3] = methylphenidate 60 mg/kg s.c. 2 h after test substance, read-out: Methylphenidate antag. 2h (ED50)
[4] = methylphenidate 60 mg/kg s.c. 24 h after test substance, read-out: Methylphenidate antag. 24h (ED50)

Row | SMILES | Ratio Catalep./Amphetam. antag. [1] | ED50 [1] [mg/kg] | LD50 at 24 h [2] [mg/kg] | ED50 (methylphenidate; [3]) [mg/kg] | ED50 (amphetamine) [mg/kg] | ED50 (physostigmine) [mg/kg] | acute toxicity, in words ([2]; compared with Lu 14-089 or related thioxanthene derivatives) | ED50 (methylphenidate; [4]) [mg/kg] | neuroleptic activity as expressed by the amphetamine antagonism, in words (amphetamine; compared with Lu 14-089) | IC50 (Muscarinic) [nM] | ED50 (apomorphine) [mg/kg]
1 | CN1CCC(=C2c3ccc(F)cc3Sc3ccc(Cl)cc32)CC1 [Lu 12-304, 2-Chloro-6-fluoro-9-(1-methyl-4-piperidylidene)-thioxanthene] | 0.62 | 3.4 | 187 | 4.6 | 5.5 | 8.9 | – | – | – | – | –
2 | CN1CCC(=C2c3ccccc3Sc3ccc(Cl)cc32)CC1 [Lu 13-016, 2-Chloro-9-(1-methyl-4-piperidylidene)-thioxanthene] | 6.5 | 25 | 226 | 1 | 3.9 | 4.4 | higher acute toxicity | > 20 | much lower neuroleptic activity | 14 | –
3 | CSc1ccc2c(c1)C(=C1CCN(C)CC1)c1ccccc1S2 [Lu 14-145, 2-Methylthio-9-(1-methyl-4-piperidylidene)-thioxanthene] | – | > 20 | 188 | 1.4 | > 20 | 4.9 | – | 14 | – | 13 | –
4 | CN(C)CCCN1c2ccccc2Sc2ccc(Cl)cc21 [chlorpromazine] | – | 5.6 | 226 | 4 | 7.1 | > 40 | – | 20 | – | – | 0.36
5 | CN1CCC(=C2c3ccccc3Sc3ccc(C(F)(F)F)cc32)CC1 [Lu 13-003, 2-Trifluoromethyl-9-(1-methyl-4-piperidylidene)-thioxanthene] | 3.5 | 1.3 | 187 | 0.15 | 0.37 | 4.6 | – | – | – | 8 | –
6 | CN1CCC(=C2c3ccc(F)cc3Sc3ccc(C(F)(F)F)cc32)CC1 [Lu 12-312, 2-Trifluoromethyl-6-fluoro-9-(1-methyl-4-piperidylidene)-thioxanthene] | 0.12 | 0.067 | 188 | 0.07 | 0.56 | 7.7 | – | 2.1 | – | 18 | 0.04
7 | OCCN1CCN(CCC=C2c3ccccc3Sc3ccc(C(F)(F)F)cc32)CC1 [flupentixol] | 0.36 | 0.25 | 246 | 0.2 | 0.69 | > 40 | – | > 20 | – | 4000 | 0.02
8 | O=C(CCCN1CCC(O)(c2ccc(Cl)cc2)CC1)c1ccc(F)cc1 [haloperidol] | – | 0.21 | 226 | 0.06 | 0.14 | > 20 | – | – | – | – | 0.01
9 | CN(C)CC/C=C1/c2ccccc2Sc2ccc(Cl)cc21 [chlorprothixene] | – | 4 | 226 | 0.71 | 6.1 | 86 | – | > 20 | – | – | 0.9
10 | OCCN1CCN(CCCN2c3ccccc3Sc3ccc(C(F)(F)F)cc32)CC1 [fluphenazine] | – | 0.099 | 259 | 0.04 | 0.08 | > 20 | – | 3.6 | – | – | 0.007
11 | OCCN1CCN(CCC=C2c3ccccc3Sc3ccc(Cl)cc32)CC1 [clopenthixol] | – | 0.95 | 226 | 1.2 | 0.77 | > 20 | – | – | – | – | 0.04
12 | CN1CCN(C2=Nc3cc(Cl)ccc3Nc3ccccc32)CC1 [clozapine] | – | 85 | > 320 | > 160 | > 40 | 24 | – | – | – | – | ~4

Source: patent publication US4235916A, “2-Methylthio-6-fluoro-9-(1-methyl-4-piperidylidene)-thioxanthene and salts thereof, neuroleptic compositions and method of use” (Kefalas A/S, priority 1977, dated 1980)
